Experiment [1] deals with Epidermal growth factor receptor (Homo sapiens) (UniProt P00533). The experiment can be described thus: Inhibition of EGFR PTK at 1 uM.
The target is the same in experiment [2]. The experiment can be described thus: Inhibition of EGFR PTK at 10 uM.
The target is the same in experiment [3]. The experiment can be described thus: Inhibition of EGFR PTK at 0.1 uM.
For experiment [4] the target is unchanged. The experiment is described as follows: Inhibition of EGFR PTK at 0.01 uM.

Chain of Epidermal growth factor receptor (Homo sapiens) (P00533 whole entry): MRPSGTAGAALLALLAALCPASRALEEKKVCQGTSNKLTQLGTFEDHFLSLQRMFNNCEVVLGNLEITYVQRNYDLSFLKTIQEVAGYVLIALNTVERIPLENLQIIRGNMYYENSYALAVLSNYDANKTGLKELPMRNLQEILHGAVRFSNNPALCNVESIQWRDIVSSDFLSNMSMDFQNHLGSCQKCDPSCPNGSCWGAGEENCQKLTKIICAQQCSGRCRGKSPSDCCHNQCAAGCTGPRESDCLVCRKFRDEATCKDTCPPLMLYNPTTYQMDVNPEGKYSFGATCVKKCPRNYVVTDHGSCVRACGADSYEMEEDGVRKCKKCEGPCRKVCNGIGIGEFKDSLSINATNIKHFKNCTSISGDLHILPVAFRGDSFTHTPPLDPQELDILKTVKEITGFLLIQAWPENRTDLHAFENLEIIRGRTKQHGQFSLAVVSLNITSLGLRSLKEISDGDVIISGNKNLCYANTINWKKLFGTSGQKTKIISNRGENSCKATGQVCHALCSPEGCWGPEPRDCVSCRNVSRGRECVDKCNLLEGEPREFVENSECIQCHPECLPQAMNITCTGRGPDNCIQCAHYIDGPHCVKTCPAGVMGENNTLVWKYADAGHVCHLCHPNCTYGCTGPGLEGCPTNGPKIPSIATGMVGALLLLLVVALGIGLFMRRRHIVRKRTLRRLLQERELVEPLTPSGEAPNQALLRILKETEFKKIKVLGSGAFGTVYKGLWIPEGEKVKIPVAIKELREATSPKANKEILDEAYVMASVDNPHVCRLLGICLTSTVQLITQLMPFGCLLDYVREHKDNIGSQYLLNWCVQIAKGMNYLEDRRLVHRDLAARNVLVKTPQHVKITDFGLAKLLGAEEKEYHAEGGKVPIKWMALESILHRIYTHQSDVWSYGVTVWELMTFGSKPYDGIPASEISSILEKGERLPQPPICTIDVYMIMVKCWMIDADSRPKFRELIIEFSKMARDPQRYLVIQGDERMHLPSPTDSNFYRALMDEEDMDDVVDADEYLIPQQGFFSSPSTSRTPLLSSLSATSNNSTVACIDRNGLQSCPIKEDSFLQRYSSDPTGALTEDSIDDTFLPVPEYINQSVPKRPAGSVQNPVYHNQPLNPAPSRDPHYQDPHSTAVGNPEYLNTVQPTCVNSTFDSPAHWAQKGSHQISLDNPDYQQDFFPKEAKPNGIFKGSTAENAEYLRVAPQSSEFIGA

As to `C=CC(=O)Nc1ccc(C(=O)Nc2cccc(Cl)c2)c(O)c1`, the inhibition in experiment [1] worked out at 46.3%; in experiment [2], 62.6%; in experiment [3], 21.6%.
In experiment [2], `CCC(=O)Nc1ccc(C(=O)Nc2cccc(C(=O)N(CC)CC)c2)c(O)c1` gave an inhibition of 46.6%.
Consider `C=CC(=O)Nc1ccc(C(=O)Nc2cccc(C(=O)N3CCCCC3)c2)c(O)c1`, for which the inhibition was found to be 91.2% in experiment [1], 75.1% in experiment [4], 91.9% in experiment [2] and 88% in experiment [3].
Take `CCC(=O)Nc1ccc(C(=O)Nc2ccc(Oc3ccccc3)cc2)c(O)c1`: in experiment [2], the inhibition turned out to be 48.5%.
For the compound `C=CC(=O)Nc1ccc(C(=O)Nc2cccc(Oc3ccccc3)c2)c(O)c1`, the inhibition came out at 89.3% in experiment [1], 18.8% in experiment [4], 91.2% in experiment [2] and 86.6% in experiment [3].
On the same counts, the results for `C=CC(=O)Nc1ccc(C(=O)Nc2cccc(C(=O)N3CCCC3)c2)c(O)c1` are 88.6%, 26%, 91% and 84.2%.
On the same counts, the results for `C=CC(=O)Nc1ccc(C(=O)Nc2cccc(C(=O)N(CC)CC)c2)c(O)c1` are 54.4%, 14.1%, 63.9% and 40.4%.
Compound `C=CC(=O)Nc1ccc(C(=O)Nc2cccc(Oc3ccccc3)c2)c(OC)c1` had an inhibition in experiment [2] of 1.59%.
In the case of `C=CC(=O)Nc1ccc(O)c(C(=O)Nc2cccc(Cl)c2)c1`, the inhibition in experiment [1] worked out at 38.3%; in experiment [2] it was 73.1%; in experiment [3], 23.3%.
With `C=CC(=O)Nc1ccc(C(=O)Nc2ccc(Oc3ccccc3)cc2)c(O)c1`, the inhibition in experiment [1] was found to be 28.1%; in experiment [4], 0%; in experiment [2], 62.2%; in experiment [3] it was 0.8%.
`C=CC(=O)Nc1ccc(C(=O)Nc2cccc(C(O)c3ccccc3)c2)c(OC)c1` (configuration not stated) gave an inhibition in experiment [2] of 5.84%.
For `C=CC(=O)Nc1ccc(O)c(C(=O)Nc2cccc(Br)c2)c1`, the inhibition turned out to be 90.6% in experiment [1], 52.9% in experiment [4], 93% in experiment [2] and 89.5% in experiment [3].
On the same counts, the results for `C=CC(=O)Nc1ccc(C(=O)Nc2cccc(C(O)c3ccccc3)c2)c(O)c1` (configuration not stated) are 91.7%, 49.3%, 93.5% and 84.8%.
In the case of `C=CC(=O)Nc1ccc(C(=O)Nc2cccc(Br)c2)c(O)c1`, the inhibition in experiment [1] was determined as 89.9%; in experiment [4], 76%; in experiment [2] it was 91.3%; in experiment [3] it was 88.2%.

Source of the values: ChEMBL document CHEMBL1148570, “Acryloylamino-salicylanilides as EGFR PTK inhibitors” (Bioorg Med Chem Lett, 2006).
